Test results: patent US20250186603A1, “ANTI-GD2 ANTIBODIES, IMMUNOCONJUGATES AND THERAPEUTIC USES THEREOF” (Merck Patent GmbH, priority 2022, published 2025)

What was measured:
CTG-2264 tumors = assay: Combination efficacy study of anti-GD2 ADC and ATR inhibitor in osteosarcoma PDX model CTG-2264; format: in vivo, athymic nude mice (nu/nu); details: Day 23; Molecule 1 3.0 mg/kg single IV Day0; ATR inhibitor 10 mg/kg p.o. qd; combination of both
Experimental: The antitumor activities of selected ADCs of the present invention were tested in the CTG-2264, osteosarcoma PDX model.
Vehicle control was saline and dosed (10 mL/kg) at Day0. The group size for each treatment group was 3. The calculation of the Tumor Growth Inhibition (TGI) was done for Day 23 after treatment start, when the mean tumor volume of the control group reached 1000 mm3 (see FIG. 11, 12).

[1] = system: MDA-MB-468 (breast carcinoma) cells; assay: ADC cell killing assay (CellTiter Glo Luminescent Cell Viability assay) on MDA-MB-468; format: cell-based, human
Experimental: (§1) The in vitro potency of the ADCs hu14.18-IgG1.4 (K322A)-delK-βGluc Exatecan and rituximab IgG1 βGluc Exatecan, the unconjugated antibody hu14.18-IgG1.4 (K322A)-delk and the free payload Exatecan was measured on antigen-positive human tumor cell lines CHP-134 (neuroblastoma, #ACC653, DSMZ, Braunschweig, Germany), NCI-H446 (small cell lung cancer (SCLC), #HTB-171, ATCC, Manassas, VA, USA) as well as M21 (melanoma, Scripps Research Institute, La Jolla, CA, USA) and antigen-negative human tumor cell line MDA-MB-468 (breast carcinoma, #ACC738, DSMZ, Braunschweig, Germany) using the CellTiter Glo® Luminescent Cell Viability assay (#G7573, Promega Corporation, Madison, WI, USA).
(§2) The cell lines CHP-134, NCI-H446 and MDA-MB-468 were cultured as instructed by vendor and maintained in RPMI1640 medium with GlutaMAX™ supplement (#61870-010, Gibco™, purchased from Thermo Fisher Scientific, Waltham, MA, USA), 1 mM sodium pyruvate (#11360-070, Gibco™, Thermo Fisher Scientific) and 10% fetal bovine serum (FBS) (#S0615, Sigma Aldrich, St. Louis, MO, USA). The melanoma cell line M21 was cultured in DMEM with stable L-glutamine (#41965-039, Gibco™, Thermo Fisher Scientific) and 10% FBS. […]

[2] = system: CHP-134 (neuroblastoma) cells; assay: ADC cell killing assay (CellTiter Glo Luminescent Cell Viability assay) on CHP-134; format: cell-based, human
Experimental: as §1, §2

[3] = system: NCI-H446 (small cell lung cancer) cells; assay: ADC cell killing assay (CellTiter Glo Luminescent Cell Viability assay) on NCI-H446; format: cell-based, human
Experimental: as §1, §2

M21 (melanoma) cells = assay: ADC cell killing assay (CellTiter Glo Luminescent Cell Viability assay) on M21; format: cell-based, human
Experimental: as §1, §2

[4] = cited from earlier work

Nc1nn2cc(F)cnc2c1C(=O)Nc1cncc(F)c1N1CCC(C(=O)N2CCN(C3COC3)CC2)CC1 [ATR inhibitor]
tumor growth inhibition (TGI) (CTG-2264 tumors): 67%

CC[C@@]1(O)C(=O)OCc2c1cc1n(c2=O)Cc2c-1nc1cc(F)c(C)c3c1c2[C@@H](N)CC3 [Exatecan, (1S,9S)-1-Amino-9-ethyl-5-fluoro-9-hydroxy-4-methyl-1,2,3,9,12,15-hexahydro-10H,13H-benzo[de]pyrano[3′,4′:6,7]indolizino[1,2-b]quinoline-10,13-dione]
IC50 ([1]; Homo sapiens, MDA-MB-468, 144 h): 0.3 nM
Span (%) ([1]; MDA-MB-468, % efficacy at highest test concentration (100 nM for Molecule 1,2,4; 1 μM for Molecule 3), geomean): 100%
Span (%) ([2]; CHP-134, % efficacy at highest test concentration (100 nM for Molecule 1,2,4; 1 μM for Molecule 3), geomean): 100%
IC50 ([2]; Homo sapiens, CHP-134, 144 h): 0.2 nM
IC50 ([3]; Homo sapiens, NCI-H446, 144 h): 0.07 nM
Span (%) ([3]; NCI-H446, % efficacy at highest test concentration (100 nM for Molecule 1,2,4; 1 μM for Molecule 3), geomean): 96%
IC50 (M21 (melanoma) cells; Homo sapiens, M21, 144 h): 1.1 nM
Span (%) (M21 (melanoma) cells; M21, % efficacy at highest test concentration (100 nM for Molecule 1,2,4; 1 μM for Molecule 3), geomean): 95%

B1: Dinutaximab beta (antibody, chains of the INN, looked up, V domains shown)
VH: EVQLLQSGPELEKPGASVMISCKASGSSFTGYNMNWVRQNIGKSLEWIGAIDPYYGGTSYNQKFKGRATLTVDKSSSTAYMHLKSLTSEDSAVYYCVSGMEYWGQGTSVTVSS
VL: EIVMTQSPATLSVSPGERATLSCRSSQSLVHRNGNTYLHWYLQKPGQSPKLLIHKVSNRFSGVPDRFSGSGSGTDFTLKISRVEAEDLGVYFCSQSTHVPPLTFGAGTKLELK
clinical signs ([4]; cynomolgus monkeys, EMA/263814/2017): clinical signs that were interpreted as acute pain
histopathology of peripheral nervous system ([4]; infused 4 h/day for 10 consecutive days, 30 and 100 mg/m^2/day): histopathological changes were noted on day 15 in the peripheral nerves and visceral nervous innervation of organs
